A value given as a limit tells only on which side of the number the result lay.

The text below walks through data of publication PMC4767940 (PLoS ONE, 2016).

The subject of assay [1] is CD8+ T cells. The settings on record: cited from earlier work.
Assay [2] has as its target H-2D^b on the surface of RMA-S cells (mouse (endogenous in RMA/S)). In words: flow cytometry on cells. For orientation: In flow cytometry, cells or beads pass a laser one at a time.

As to `O=CC[C@@H](O)[C@H](O)[C@H](O)CO` [2-deoxyglucose], the “formation of memory CD8+ T cell responses” value in assay [1] was “augments the formation of memory CD8+ T cell responses”.

Molecule “GP33-41 peptide (wildtype GP33 epitope of LCMV)” registered a half-life of the peptide on H-2D^b in assay [2] of more than 5 h.
